The values below come from patent US6486196B2, “Anticancer compounds: process for their preparation and pharmaceutical compositions containing them” (Dr. Reddy's Research Foundation, priority 2000, dated 2002).

Test [1] relates to MCF-7/ADR. Description: Sulforhodamine B growth inhibition, breast MCF-7/ADR. The class given is cell-based, human. The following applies: 48 h, SRB, read-out: GROWTH INHIBITION (GI 50). On the procedure:
(§1) Each test compound was screened against a battery of cell lines representing eight different types of cancers. In a typical procedure, 1×10^4 cells were seeded into each well of 96 well plate in 100 μL volume of RPMI 1640 medium containing antibiotics and 10% FCS.
(§2) The plates were incubated at 37° C. in presence of CO2. After 24 h, test compounds were evaluated at five 10 fold dilutions ranging from 100 to 0.01 μM. To each test well 100 μL of test compound solution was added and medium with vehicle was added to control wells and the plates were further incubated. After 48 h of incubation, plates were terminated by Sulforhodamine B method.
(§3) The optical density which is proportional to protein mass, is then read by automated spectrophotometric plate reader at a wavelength of 515 nm.

The subject of test [2] is MCF7. Put plainly: Sulforhodamine B growth inhibition, breast MCF7. Format: cell-based, human. The following applies: 48 h, SRB, read-out: GROWTH INHIBITION (GI 50). On the procedure: as §1, §2, §3
For test [3], the system named is U251. Description: Sulforhodamine B growth inhibition, CNS U251. Format: cell-based, human. The note with it: 48 h, SRB, read-out: GROWTH INHIBITION (GI 50). On the procedure:
as §1, §2, §3

For test [4], the system named is SW-620. Put plainly: Sulforhodamine B growth inhibition, colon SW-620. The class given is cell-based, human. The note with it: 48 h, SRB, read-out: GROWTH INHIBITION (GI 50). On the procedure:
as §1, §2, §3

The subject of test [5] is HT29. Put plainly: Sulforhodamine B growth inhibition, colon HT29. The class given is cell-based, human. The note with it: 48 h, SRB, read-out: GROWTH INHIBITION (GI 50). On the procedure:
as §1, §2, §3

Test [6] relates to H522. Put plainly: Sulforhodamine B growth inhibition, lung H522. The class given is cell-based, human. The note with it: 48 h, SRB, read-out: GROWTH INHIBITION (GI 50). On the procedure: as §1, §2, §3
Test [7] concerns UACC62. Description: Sulforhodamine B growth inhibition, melanoma UACC62. The following applies: 48 h, SRB, read-out: GROWTH INHIBITION (GI 50). Format: cell-based, human. On the procedure: as §1, §2, §3
In test [8] the test system is SKOV-3. Put plainly: Sulforhodamine B growth inhibition, ovarian SKOV-3. The following applies: 48 h, SRB, read-out: GROWTH INHIBITION (GI 50). The class given is cell-based, human. On the procedure: as §1, §2, §3
Test [9] deals with PA1. Put plainly: Sulforhodamine B growth inhibition, ovarian PA1. Format: cell-based, human. The note with it: 48 h, SRB, read-out: GROWTH INHIBITION (GI 50). On the procedure: as §1, §2, §3
The subject of test [10] is DU145. Description: Sulforhodamine B growth inhibition, prostate DU145. Format: cell-based, human. The note with it: 48 h, SRB, read-out: GROWTH INHIBITION (GI 50). On the procedure:
as §1, §2, §3

Test [11] relates to PC-3. Put plainly: Sulforhodamine B growth inhibition, prostate PC-3. The class given is cell-based, human. The following applies: 48 h, SRB, read-out: GROWTH INHIBITION (GI 50). On the procedure: as §1, §2, §3
Test [12] relates to A498. Description: Sulforhodamine B growth inhibition, renal A498. Format: cell-based, human. The following applies: 48 h, SRB, read-out: GROWTH INHIBITION (GI 50). On the procedure:
as §1, §2, §3

Test [13] concerns HIV-1/MN. Description: Anti HIV activity in PM-1 cells (P24 ELISA, MTT corrected). The class given is cell-based. The note with it: 1 μM; PM-1 cells infected with HIV-1/MN, 96 h, P24 antigen corrected by MTT. On the procedure:
Human CD^4+ T cell line PM-1 used in the assay was cultured in RPMI-1640 medium containing 10% Fetal bovine serum, 2 g/L sodium bicarbonate, 100,000 units/L Pencillin-G and 100 mg/L streptomycin. Healthy PM-1 cells were plated on the first day in a 96 well plate at 2×10^6 cells per well. After 24 h HIV-1/MN was added to the culture and incubated for 2 h for infection. Cells were washed twice with PBS to remove the virus in the culture. Different concentrations of DRF compounds ranging from 10−^4 to 10^−8 M were added to the culture and incubated for 96 h. The viability of cells was then assessed by standard MTT assay and the viral antigen P24 levels were estimated by ELISA method. Based on the MTT assay values the P 24 antigen values were corrected.
All the samples were tested in triplicates and the average was used for calculations. AZT was used as standard compound for comparision.
Background: In an ELISA, binding on a coated surface is turned into a signal by an enzyme label.

The test system of test [14] is Human lymphocytes. Description: Lymphocyte proliferation (tritiated thymidine incorporation). The note with it: 1 μM; human lymphocytes with Phytohemagglutitin A. Format: cell-based. On the procedure: Human lymphocytes were isolated from whole blood by using Ficoll Hypaque Plus (Amersham). On day one, 1 million lymphocytes were seeded into each well of 96 well plate in 100 μL volume of RPMI 1640 medium containing 10% FCS and Phytohemagglutitin A at 1 μg/well concentration. Plates were incubated at 37° C. in CO2 incubator for 24 h. Test compounds at various concentrations were added to test wells and only medium with vehicle was added to control wells. After 48 h of incubation […] of tritiated thymidine was added to each well. After 24 h of thymidine addition the cells were harvested and the incorporated radioactivity was determined.
Stimulation Index (SI) was calculated using the formula, […]
A general note: Incorporation of labelled thymidine or its analogues reports DNA synthesis.

The subject of test [15] is C57BL/KsJ-db/db mice. Put plainly: Blood sugar and triglycerides lowering in db/db mice. Format: in vivo. The note with it: 100 mg/kg oral gavage daily for 6 days, plasma. The text has this:
Mutution in colonies of laboratory animals and different sensitivities to dietary regimens have made the development of animal models with non-insulin dependent diabetes and hyperlipidemia associated with obesity and insulin resistance possible. Genetic models such as db/db mice have been developed by the various laboratories for understanding the pathophysiology of disease and testing the efficacy of new antidiabetic compounds (Diabetes, (1983) 32: 830-838; Annu. Rep. Sankyo Res. Lab. (1994) 46:1-57). The homozygous animals, C57 BL/KsJ-db/db mice developed by Jackson Laboratory, US, are obese, hyperglycemic, hyperinsulinemic and insulin resistant (J. Clin, Invest., (1990) 85: 962-967), whereas heterozygous are lean and normoglycemic. […]
The random blood sugar and triglyceride levels were measured by collecting blood (100 μl) through orbital sinus, using heparinised capillary in tubes containing EDTA which was centrifuged to obtain plasma. The plasma glucose and triglyceride levels were measured spectrometrically, by glucose oxidase and glycerol-3-PO4 oxidase/peroxidase enzyme (Dr. Reddy's Lab. Diagnostic Division Kits, Hyderabad, India) methods respectively.
The blood sugar and triglycerides lowering activities of the test compound was calculated according to the formula: [formula]
Body weight of the animals were measured at the beginning and at the end of the study period.

In test [16] the test system is Swiss albino mice. Description: Plasma triglyceride and body weight reduction in Swiss albino mice. The class given is in vivo. On the procedure: Male Swiss albino mice (SAM) were obtained from NIN and housed in DRF animal house. All these animals were maintained under 12 hour light and dark cycle at 25±1° C. Animals were given standard laboratory chow (NIN, Hyderabad, India) and water, ad libitum. SAM of 20-25 g body weight range (Oliver, P., Plancke, M. O., Marzin, D., Clavey, V., Sauzieres, J and Fruchart, J. C. Effects of fenofibrate, gemfibrozil and nicotinic acid on plasma lipoprotein levels in normal and hyperlipidemic mice. Atherosclerosis. 1988. 70: 107-114)
The test compounds were administered orally to Swiss albino mice at 30 to 500 mg/kg/day dose for 6 days. Control mice were treated with vehicle (Chremophore/DMSO/H2O; dose 10 ml/kg).
The blood samples were collected in fed state 1 hour after drug administration on 0 and 6 day of treatment. The blood was collected from the retro-orbital sinus through heparinised capillary in EDTA containing tubes. After centrifugation, plasma sample was separated for triglyceride (Wieland, 0. Methods of Enzymatic analysis, Bergerneyer, H. O., Ed., 1963. 211-214; Trinder, P. Ann. Clin. Biochem. 1969. 6: 24-27). Measurement of plasma triglycerides was done using commercial kits (Dr. Reddy's Diagnostic Division, Hyderabad, India).
The formula used to measure percent reduction in blood sugar/triglycerides is given above.

Consider `C=C1CC[C@@H]2[C@](C)(COC(C)=O)[C@H](OC(C)=O)CC[C@@]2(C)[C@@H]1C/C=C1/C(=O)OC[C@H]1OC(=O)C(OC(C)=O)C(NC(C)=O)c1ccccc1` (stereo partly drawn) [Example 16, 3,19-Diacetyl-14-(2′-acetyl 3′-acetamido 3′-phenyl)propionyl andrographolide], for which the GI50 in [1] amounted to 5.5 µM; in [2], 5 µM; in test [3] it was 4 µM; in test [4], 6 µM; in test [5] it was 6.5 µM; in test [6], 6 µM. The GI50 is 3 µM in test [7]; 4 µM in test [8]; 2 µM in test [9]; 6.5 µM in test [10]; 6.5 µM in test [11]; 9 µM in [12]. The “Percentage Inhibition” value in [13] is 61.06%. Also, the “Stimulation Index (SI)” value in test [14] amounted to 90. Moreover, the “Percentage reduction Glucose” value in test [15] is reported as 64%. Further, the “Percentage reduction TG” value in [15] stood at 54%; in [16] (100 mg/kg orally for 6 days) it was 42%; in test [16] (500 mg/kg orally for 6 days) it was 62%. Moreover, the “Percentage reduction Body weight” value in [16] (100 mg/kg orally for 6 days) was found to be 9%; in test [16] (250 mg/kg orally for 6 days), 15%; in test [16] (500 mg/kg orally for 6 days), 23%.
